Measurements as given in patent US11000033B2, “Ketone or oxime compound, and herbicide” (NISSAN CHEMICAL CORPORATION, priority 2014, dated 2021).

What was measured:
[1] = tested on: Stellaria media; assay: Test Example 5: herbicidal effect by foliage application, plastic box (symbol P); format: in vivo; conditions: 320 g/ha, 3 weeks after application
Outline: (§1)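 Visual herbicidal score, taken three weeks post-application, of seedlings sprayed on the foliage with water-diluted emulsion at a predetermined amount; plants were 14 days old, greenhouse-raised at 25° C. to 30° C.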

[2] = tested on: Amaranthus retroflexus; assay: Test Example 5: herbicidal effect by foliage application, plastic box (symbol N); format: in vivo; conditions: 320 g/ha, 3 weeks after application
Outline: as §1

[3] = tested on: Alopecurus myosuroides; assay: Test Example 5: herbicidal effect by foliage application, plastic box (symbol J); format: in vivo; conditions: 320 g/ha, 3 weeks after application
Outline: as §1

[4] = tested on: Digitaria ciliaris; assay: Test Example 5: herbicidal effect by foliage application, plastic box (symbol F); format: in vivo; conditions: 320 g/ha, 3 weeks after application
Outline: as §1

[5] = tested on: beet; assay: Test Example 5: effect on crop by foliage application, plastic box (symbol f); format: in vivo; conditions: 320 g/ha, 3 weeks after application
Outline: (§2)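 Soil: sterilized diluvial. Container: plastic box, 21 × 13 cm, 7 cm deep. Sowing: spot-like, ~1.5 cm cover. Growth: greenhouse, 25° C. to 30° C.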

[6] = tested on: Leptochloa chinensis; assay: Test Example 3: herbicidal effect by foliage application, Wagner pot (symbol D); format: in vivo; conditions: application herbicide amount 320 g/ha
Outline: (§3)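 Herbicidal activity was rated three weeks after a foliar spray of diluted emulsion concentrate, applied at a predetermined dose to plants grown for 14 days from seed in waterlogged alluvial soil within a 25–30 °C greenhouse.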

[7] = tested on: rapeseed; assay: Test Example 5: effect on crop by foliage application, plastic box (symbol g); format: in vivo; conditions: 320 g/ha, 3 weeks after application
Outline: as §2

[8] = tested on: Cyperus difformis; assay: Test Example 3: herbicidal effect by foliage application, Wagner pot (symbol E); format: in vivo; conditions: application herbicide amount 320 g/ha
Outline: as §3

[9] = tested on: soybean; assay: Test Example 5: effect on crop by foliage application, plastic box (symbol d); format: in vivo; conditions: 320 g/ha, 3 weeks after application
Outline: as §2

[10] = tested on: Galium spurium; assay: Test Example 5: herbicidal effect by foliage application, plastic box (symbol Q); format: in vivo; conditions: 320 g/ha, 3 weeks after application
Outline: as §1

[11] = tested on: rice plant; assay: Test Example 5: effect on crop by foliage application, plastic box (symbol b); format: in vivo; conditions: 320 g/ha, 3 weeks after application
Outline: as §2

[12] = tested on: Veronica persica; assay: Test Example 5: herbicidal effect by foliage application, plastic box (symbol R); format: in vivo; conditions: 320 g/ha, 3 weeks after application
Outline: as §1

[13] = tested on: Lolium multiflorum Lam.; assay: Test Example 5: herbicidal effect by foliage application, plastic box (symbol K); format: in vivo; conditions: 320 g/ha, 3 weeks after application
Outline: as §1

[14] = tested on: Echinochloa crus-galli var. crus-galli; assay: Test Example 5: herbicidal effect by foliage application, plastic box (symbol H); format: in vivo; conditions: 320 g/ha, 3 weeks after application
Outline: as §1

[15] = tested on: Setaria viridis; assay: Test Example 5: herbicidal effect by foliage application, plastic box (symbol G); format: in vivo; conditions: 320 g/ha, 3 weeks after application
Outline: as §1

[16] = tested on: Abutilon theophrasti; assay: Test Example 5: herbicidal effect by foliage application, plastic box (symbol M); format: in vivo; conditions: 320 g/ha, 3 weeks after application
Outline: as §1

[17] = tested on: Avena fatua; assay: Test Example 5: herbicidal effect by foliage application, plastic box (symbol I); format: in vivo; conditions: 320 g/ha, 3 weeks after application
Outline: as §1

[18] = tested on: Echinochloa crus-galli var. crus-galli; assay: Test Example 3: herbicidal effect by foliage application, Wagner pot (symbol H); format: in vivo; conditions: application herbicide amount 320 g/ha
Outline: as §3

[19] = tested on: Chenopodium album; assay: Test Example 5: herbicidal effect by foliage application, plastic box (symbol O); format: in vivo; conditions: 320 g/ha, 3 weeks after application
Outline: as §1

[20] = tested on: directly sowed rice plant; assay: Test Example 3: effect on crop by foliage application, Wagner pot (symbol b); format: in vivo; conditions: application herbicide amount 320 g/ha
Outline: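 Wagner pot (1/10000 are), alluvial soil, submerged 0.1–0.5 cm; sown E. crus-galli var. crus-galli, L. chinensis, C. difformis, rice; greenhouse 25–30 °C.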

[21] = tested on: corn; assay: Test Example 5: effect on crop by foliage application, plastic box (symbol c); format: in vivo; conditions: 320 g/ha, 3 weeks after application
Outline: as §2

[22] = tested on: Apera spica-venti; assay: Test Example 5: herbicidal effect by foliage application, plastic box (symbol L); format: in vivo; conditions: 320 g/ha, 3 weeks after application
Outline: as §1

[23] = tested on: wheat; assay: Test Example 5: effect on crop by foliage application, plastic box (symbol e); format: in vivo; conditions: 320 g/ha, 3 weeks after application
Outline: as §2

Structure (SMILES) | P: Stellaria media, herbicidal effect grade [1] | N: Amaranthus retroflexus, herbicidal effect grade [2] | J: Alopecurus myosuroides, herbicidal effect grade [3] | F: Digitaria ciliaris, herbicidal effect grade [4] | f: beet, effect on crop grade [5] | g: rapeseed, effect on crop grade [7] | d: soybean, effect on crop grade [9] | b: directly sowed rice plant, effect on crop grade [11] | R: Veronica persica, herbicidal effect grade [12] | K: Lolium multiflorum Lam., herbicidal effect grade [13] | H: Echinochloa crus-galli var. crus-galli, herbicidal effect grade [14] | G: Setaria viridis, herbicidal effect grade [15] | melting point [°C] | M: Abutilon theophrasti, herbicidal effect grade [16] | I: Avena fatua, herbicidal effect grade [17] | c: corn, effect on crop grade [21] | L: Apera spica-venti, herbicidal effect grade [22] | e: wheat, effect on crop grade [23] | also measured
CON=C(C)CC1CC(O)=C(c2c(C)cc(C#N)cc2C)C1=O (stereo not drawn) [6-027] | 0 (Herbicidal ratio of 5% or lower (almost no effect)) | 0 (Herbicidal ratio of 5% or lower (almost no effect)) | 0 (Herbicidal ratio of 5% or lower (almost no effect)) | 3 (Herbicidal ratio of 40% or higher and lower than 70%) | 0 (Herbicidal ratio of 5% or lower (almost no effect)) | 0 (Herbicidal ratio of 5% or lower (almost no effect)) | 0 (Herbicidal ratio of 5% or lower (almost no effect)) | 1 (Herbicidal ratio of 5% or higher and lower than 20%) | 0 (Herbicidal ratio of 5% or lower (almost no effect)) | 0 (Herbicidal ratio of 5% or lower (almost no effect)) | 4 (Herbicidal ratio of 70% or higher and lower than 90%) | 4 (Herbicidal ratio of 70% or higher and lower than 90%) | 181 to 184 | 0 (Herbicidal ratio of 5% or lower (almost no effect)) | 1 (Herbicidal ratio of 5% or higher and lower than 20%) | 1 (Herbicidal ratio of 5% or higher and lower than 20%) | 0 (Herbicidal ratio of 5% or lower (almost no effect)) | 0 (Herbicidal ratio of 5% or lower (almost no effect)) | herbicidal effect on D (Leptochloa chinensis), grade 0-5 [6]: 3 (Herbicidal ratio of 40% or higher and lower than 70%); herbicidal effect on E, grade 0-5 [8]: 0 (Herbicidal ratio of 5% or lower (almost no effect)); Q: Galium spurium, herbicidal effect grade [10]: 0 (Herbicidal ratio of 5% or lower (almost no effect)); herbicidal effect on H (Echinochloa crus-galli var. crus-galli), grade 0-5 [18]: 2 (Herbicidal ratio of 20% or higher and lower than 40%); O: Chenopodium album, herbicidal effect grade [19]: 0 (Herbicidal ratio of 5% or lower (almost no effect)); effect on crop b (directly sowed rice plant), grade 0-5 [20]: 0 (Herbicidal ratio of 5% or lower (almost no effect))
CON=C(C)CC1CC(O)=C(c2c(C)cc([N+](=O)[O-])cc2C)C1=O (stereo not drawn) [6-032] | 0 (Herbicidal ratio of 5% or lower (almost no effect)) | 0 (Herbicidal ratio of 5% or lower (almost no effect)) | 0 (Herbicidal ratio of 5% or lower (almost no effect)) | 4 (Herbicidal ratio of 70% or higher and lower than 90%) | 0 (Herbicidal ratio of 5% or lower (almost no effect)) | 0 (Herbicidal ratio of 5% or lower (almost no effect)) | 0 (Herbicidal ratio of 5% or lower (almost no effect)) | 0 (Herbicidal ratio of 5% or lower (almost no effect)) | 0 (Herbicidal ratio of 5% or lower (almost no effect)) | 0 (Herbicidal ratio of 5% or lower (almost no effect)) | 4 (Herbicidal ratio of 70% or higher and lower than 90%) | 3 (Herbicidal ratio of 40% or higher and lower than 70%) | 181 to 183 | 0 (Herbicidal ratio of 5% or lower (almost no effect)) | 0 (Herbicidal ratio of 5% or lower (almost no effect)) | 0 (Herbicidal ratio of 5% or lower (almost no effect)) | 0 (Herbicidal ratio of 5% or lower (almost no effect)) | 0 (Herbicidal ratio of 5% or lower (almost no effect)) | –
CON=C(C)CC1CC(OC)=C(c2c(C)cc(OCC(F)(F)F)cc2C)C1=O (stereo not drawn) [6-042] | – | – | – | – | – | – | – | – | – | – | – | – | 117 to 119 | – | – | – | – | – | –
CON=C(C)CC1CC(OC)=C(c2c(C)cc(OC)cc2C)C1=O (stereo not drawn) [6-048] | – | – | – | – | – | – | – | – | – | – | – | – | 82 to 85 | – | – | – | – | – | –
CON=C(C)CC1CC(OC)=C(c2c(C)cc(O)cc2C)C1=O (stereo not drawn) [6-069] | – | – | – | – | – | – | – | – | – | – | – | – | 192 to 195 | – | – | – | – | – | –
